Measurements: US20070225213A1, “Nucleic acid carriers for delivery of therapeutic agents” (priority 2006, published 2007)

What was measured:
[1] = Column chromatography determination of drug loading limit of NAC-drug; format: physicochemical; settings: Drug only (MTN, no carrier)
Source text: In a dosage form suitable for parenteral administration, the nucleic acid can be combined with the drug in an aqueous formulation of saline, dextrose or other suitable aqueous vehicle suitable for administration. It is preferred that the drug and the nucleic acid are combined in water or other suitable medium, prior to dilution in saline or media, in order to prevent inhibition of drug binding to the nucleic acid. The dosage form can be sterilized by a variety of means, and can optionally take the form of a concentrate that can be diluted in saline or other suitable vehicle prior to injection. It is preferred to minimize the amount of free drug in the injectable solution, such that the mass ratio of nucleic acid to drug is sufficient to bind most of the drug, and to limit free drug in the bloodstream. […] The percentage loading possible for other nucleic acid binding drugs will vary depending on their binding characteristics, and can be determined by column chromatography, spectrophotometry, and cytotoxicity assay methods as described herein. […]
Determination of drug loading limit of mitoxantrone (MTN) in a nucleic acid carrier (NAC) using a 2.5×9 cm G25 column (EX031904) and herring sperm DNA (HSDNA approx. range 10-100 bp Sigma-Aldrich). […] Collected 5 ml and checked absorbance scan of 0.2 ml sample on Synergy HT1. […] Collected 7.5 ml and read absorbance scan of 0.2 ml sample. […]

[2] = test system: MCF7; assay: Effect of plating time on uptake of NAC-MTN and MTN, fluorescence (Example 11); format: cell-based, human
Procedure: The effect of plating time on the differential rates of uptake between NAC-MTN and MTN were assayed in cells treated <1 hour and 24 hours after plating.
On day 1, MCF7, COS7, 3T3, and BHK21 cells were plated out in a standard tissue culture plate. After incubation of 20 minutes samples were added to cells in rows A, C, E, and G. Cells were incubated at 37C in a standard atmosphere of 5%CO2.
On day 2, samples were added to rows D, F, and H and the fluorescence was obtained EX620/EM680 S=80. Samples were removed from A,C,E and G, replaced with media and fluorescence read again. On day 2 observed significant drug toxicity in cells of rows A,C, E, G. Sample addition was postponed in row B since MCF7 were not yet confluent.
On day 3, added samples to cells in row B containing confluent MCF7's, removed samples from rows D, F, and H replaced with media and read fluorescence.
Fluorescence data from cells taken after removal of media was used to quantitate total MTN retained in the cells. Fluorescence data were converted to mg/ml MTN using a standard curve prepared with free MTN or NAC-MTN.
The percentage difference in fluorescence between cells treated with NAC-MTN or MTN alone was used to compare relative drug uptake.
The MTN fluorescence ratios were obtained by dividing MTN fluorescence of cells incubated for 24 hours by fluorescence of cells incubated 30 minutes. […] The uptake in BHK21 was roughly equivalent for NAC-MTN regardless of plate adherence, however it should be noted that BHK21 adhere very rapidly to the plate.
Fluorescence data were converted to micromolar drug concentrations (uM MTN) using a standard curve for either nucleic acid bound or unbound drug, and drug uptake ratios were obtained by dividing the t(24 hour)/t(30 min.). The ratios of absolute drug concentration per well show more dramatic differences in uptake as shown below.

O=C1c2c(O)ccc(O)c2C(=O)c2c(NCCNCCO)ccc(NCCNCCO)c21 [MTN, mitoxantrone]
G25 Column Results [1]: Single band, slow | MTN FLUOR Ratio of t(24)/t(<1) [2]: 0.75 | FLUOR (MTN fluorescence in cells) ([2]; cells treated 24 hour after plating): 18819 | FLUOR (MTN fluorescence in cells) ([2]; cells treated <1 hour after plating): 16651 | Ratio uM MTN of t(24)/t(<1) ([2]; from standard curve for bound or unbound drug): 1.2
